Key:
MB-231 (HBC) = assay: MTS cell assay, MB-231; type: cell-based, Human; conditions: 72 hours
Description: Charles River Labs athymic nude mice bearing MDA-MB-231 breast carcinoma cell line subcutaneous xenografts (5×10^6 cells in matrigel) were sacrificed to make a tumor isolate. Using sterile instruments and working aseptically, the tumors were removed from the euthanized animal. The tumor was placed in a 50 mL sterile conical tube and 5 mL of trypsin was added. The tumor was cut into small pieces and incubated at 37° C. for 30 minutes. After incubation, a cell strainer was placed on a second, sterile, 50 mL conical tube and the contents of the first tube were placed in the cell strainer. The tissue was forced through the filter using the flat end of a syringe plunger. The cell strainer was washed with 5 mLs of media containing FBS. The cells were spun down and the supernatant was discarded. The cells were resuspended in 20 mLs of complete media containing P/S and placed in a 75 cm flask.
(§1) Human carcinoma cells (2,000 cells/well) were incubated with the desired concentration of the test molecule (0-200 μM) for 72 hours. The cells were then incubated with MTS solution (Promega) for 1-2 hours, and the compounds effects on cell proliferation was determined by measuring the absorbance at 490 nm. Cell growth was expressed as a percent of the appropriate control (placebo). […] All data reported was the mean±SE of three independent experiments.

H-460 (NSCLC) = assay: MTS cell assay, H-460; type: cell-based, Human
Description: as §1

[1] = Rat plasma pharmacokinetics, solution formulations of C16, cyclohexyl and 5-decanyl esters, 3 mg-eq/kg i.v.; type: in vivo; conditions: solution formulation 3 mg-eq/kg i.v.
Description: (§2) Plasma and other tissues were prepared for high performance liquid chromatography (HPLC)/mass spectrometric analysis according to a standard protocol following protein precipitation with acetonitrile containing an internal standard. The samples were then analyzed for both bendamustine HCl and bendamustine esters of the invention and alprenolol (internal standard) via HPLC coupled with tandem mass spectrometry. Tissue samples were homogenized in sodium phosphate buffer and the value obtained from the assay was multiplied by 3 to correct for dilution during processing.
(§3) Adult animals (Charles River, Kingston, N.Y.; n=3 or 4/time point) were used in all experiments. The mice or rats were not fasted overnight prior to IV dose administration via the lateral tail vein. IV doses were administered in a fixed dose volume of 100 μL in mice or a dose volume of 1 mL/kg in rats. The mice were sacrificed by decapitation and trunk blood was collected into heparinized tubes at the sampling times stipulated. For blood collection, each rat (unanesthetized) was placed in a clear Plexiglas® restraining tube, and blood samples (approximately 0.25 mL) were drawn from a lateral tail vein into heparinized collection tubes at the sampling times stipulated. (Note: No pre-dose samples were obtained.) The exception to this procedure was the last sampling time in which the rats were sacrificed by decapitation and trunk blood was obtained rather than blood via a tail vein. The blood samples were placed on wet ice until centrifuged to separate plasma. The plasma fraction was transferred into clean, dry tubes, frozen on dry ice and stored at approximately −20° C. pending analysis. Whole brains and other highly perfused organs (liver, lung, spleen, kidney and heart) were rapidly removed at the predetermined time points and frozen on dry ice. All tissue samples were also stored at approximately −20° C. pending analysis.
(§4) The plasma concentration data for all mice and rats were entered into Excel spreadsheets in preparation for pharmacokinetic analysis. Mean pharmacokinetic parameters were estimated by non-compartmental analysis (Gibaldi and Perrier 1982) of the plasma concentration versus time data using WinNonlin software (Professional Version 4.1, Pharsight Corporation, Palo Alto, Calif.). The terminal rate constant for elimination from plasma (β) was estimated by linear regression of the terminal portion of the semi-logarithmic plasma concentration versus time curve. The apparent terminal half-life (t1/2) was calculated as 0.693 divided by β. The area under the plasma concentration versus time curve from time zero to the time of the last measurable concentration (AUC0-t) after a single dose was determined by the linear trapezoidal rule. The area from zero to infinity (AUC0-∞) was calculated as the sum of AUC0-t and the area extrapolated from the last measurable concentration to infinity (Clast/β). Concentrations pre-dose were all assumed to be zero for the purpose of calculation of the AUC. Any concentration that was below the limit of quantification (BLQ) after the last quantifiable sampling time was considered to be an empty value for the purpose of calculation of the AUC; it was treated as zero for the calculation of the mean concentration for a given sampling time.

[2] = Rat plasma, blood and organ pharmacokinetics after bendamustine C12 ester 30 mg/kg i.v.; type: in vivo; conditions: 1 mL/kg
Description: as §2, §3, §4

[3] = Homo sapiens, NCI-H460, 72 hours
[4] = C12 ester Nanoparticle Formulation

Compound: CCCCCCOC(=O)CCCc1nc2cc(N(CCCl)CCCl)ccc2n1C [—C6H13, 4-{5-[Bis-(chloroethyl)-amino]-1-methyl-1H-benzimidazol-2-yl}butyric acid hexyl ester]
- IC50 (MB-231 (HBC); Homo sapiens): 43.7 µM
- IC50 (H-460 (NSCLC); [3]): 7.4 µM

Compound: CCCCCCCCOC(=O)CCCc1nc2cc(N(CCCl)CCCl)ccc2n1C [—C8H17, 4-{5-[Bis-(chloroethyl)-amino]-1-methyl-1H-benzimidazol-2-yl}butyric aid octyl ester]
- IC50 (H-460 (NSCLC); 72 hours): 49 µM

Compound: CCCCOC(=O)CCCc1nc2cc(N(CCCl)CCCl)ccc2n1C [—C4H9, 4-{5-[Bis-(chloroethyl)-amino]-1-methyl-1H-benzimidazol-2-yl}butyric acid butyl ester]
- IC50 (MB-231 (HBC); Homo sapiens): 13.3 µM
- IC50 (H-460 (NSCLC); [3]): 15.7 µM

Compound: CCCCCCCCCCCCCCCCOC(=O)CCCc1nc2cc(N(CCCl)CCCl)ccc2n1C [C16 bendamustine ester, 4-{5-[Bis-(chloroethyl)-amino]-1-methyl-1H-benzimidazol-2-yl}butyric acid hexadecyl ester]
- IC50 (MB-231 (HBC); Homo sapiens): > 200 µM
- IC50 (H-460 (NSCLC); [3]): 77.8 µM
- AUC(0-t) ([1]; plasma, iv, 3 mg/kg, Mean n = 3, read-out: AUC0-t of Ester in plasma): 1210 ng·h/mL
- AUC(0-inf) ([1]; plasma, iv, 3 mg/kg, Mean n = 3, read-out: AUC0-∞ of Ester in plasma): 1210 ng·h/mL
- clearance ([1]; plasma, iv, 3 mg/kg, Mean n = 3, read-out: CL of Ester): 41 mL/min/kg
- Vd ([1]; plasma, iv, 3 mg/kg, Mean n = 3, read-out: Vd of Ester): 1 L/kg
- half-life ([1]; plasma, iv, 3 mg/kg, Mean n = 3, read-out: t1/2 of Ester in plasma (converted)): 0.28 h

Compound: CCCCCCCCCCCCOC(=O)CCCc1nc2cc(N(CCCl)CCCl)ccc2n1C [Bendamustine C12 Ester, 4-{5-[Bis-(chloroethyl)-amino]-1-methyl-1H-benzimidazol-2-yl}butyric aid dodecyl ester]
- IC50 (MB-231 (HBC)): 33.3 µM
- IC50 (H-460 (NSCLC); 72 hours): 28.8 µM
- AUC0-t of C12 Ester, Blood ([2]; C12 ester Liquid Formulation): 4424 ng·h/mL
- AUC0-t of C12 Ester, Brain ([2]; C12 ester Liquid Formulation): 299 ng·h/mL
- AUC0-t of C12 Ester, Kidney ([2]; C12 ester Liquid Formulation): 2383 ng·h/mL
- AUC0-t of C12 Ester, Liver ([2]; C12 ester Liquid Formulation): 2564 ng·h/mL
- AUC0-t of C12 Ester, Lung ([2]; C12 ester Liquid Formulation): 12619 ng·h/mL
- AUC0-t of C12 Ester, Spleen ([2]; C12 ester Liquid Formulation): 25874 ng·h/mL
- AUC0-∞ of C12 Ester, Kidney ([2]; C12 ester Liquid Formulation): 2605 ng·h/mL
- AUC0-∞ of C12 Ester, Liver ([2]; C12 ester Liquid Formulation): 2586 ng·h/mL
- AUC0-∞ of C12 Ester, Lung ([2]; C12 ester Liquid Formulation): 13246 ng·h/mL
- AUC0-∞ of C12 Ester, Spleen ([2]; C12 ester Liquid Formulation): 25927 ng·h/mL
- t1/2 of C12 Ester, Kidney ([2]; C12 ester Liquid Formulation): 5.3 h
- t1/2 of C12 Ester, Liver ([2]; C12 ester Liquid Formulation): 0.8 h
- t1/2 of C12 Ester, Lung ([2]; C12 ester Liquid Formulation): 7.6 h
- t1/2 of C12 Ester, Spleen ([2]; C12 ester Liquid Formulation): 3.1 h
- AUC0-t of C12 Ester, Blood [2, 4]: 951 ng·h/mL
- AUC0-t of C12 Ester, Brain [2, 4]: 149 ng·h/mL
- AUC0-t of C12 Ester, Kidney [2, 4]: 1766 ng·h/mL
- AUC0-t of C12 Ester, Liver [2, 4]: 13355 ng·h/mL
- AUC0-t of C12 Ester, Lung [2, 4]: 28327 ng·h/mL
- AUC0-t of C12 Ester, Spleen [2, 4]: 13111 ng·h/mL
- AUC0-∞ of C12 Ester, Kidney [2, 4]: 1802 ng·h/mL
- AUC0-∞ of C12 Ester, Liver [2, 4]: 13586 ng·h/mL
- AUC0-∞ of C12 Ester, Lung [2, 4]: 32297 ng·h/mL
- AUC0-∞ of C12 Ester, Spleen [2, 4]: 13578 ng·h/mL
- t1/2 of C12 Ester, Kidney [2, 4]: 4.9 h
- t1/2 of C12 Ester, Liver [2, 4]: 4.5 h
- t1/2 of C12 Ester, Lung [2, 4]: 8.5 h
- t1/2 of C12 Ester, Spleen [2, 4]: 5.4 h

Compound: CCCCCCCCCCCCCCCOC(=O)CCCc1nc2cc(N(CCCl)CCCl)ccc2n1C [—C15H31, 4-{5-[Bis-(chloroethyl)-amino]-1-methyl-1H-benzimidazol-2-yl}butyric acid pentadecyl ester]
- IC50 (MB-231 (HBC); Homo sapiens): > 200 µM
- IC50 (H-460 (NSCLC); [3]): > 200 µM

Compound: Cn1c(CCCC(=O)OC2CCCCC2)nc2cc(N(CCCl)CCCl)ccc21 [Cy-hexyl bendamustine ester, 4-{5-[Bis-(chloroethyl)-amino]-1-methyl-1H-benzimidazol-2-yl}butyric acid cyclohexyl ester]
- Plasma levels of Ester [1]: All < MQL

Compound: CCCCCCCCCCOC(=O)CCCc1nc2cc(N(CCCl)CCCl)ccc2n1C [—C10H21, 4-{5-[Bis-(chloroethyl)-amino]-1-methyl-1H-benzimidazol-2-yl}butyric acid decyl ester]
- IC50 (MB-231 (HBC); Homo sapiens): 38.9 µM
- IC50 (H-460 (NSCLC); [3]): 23.8 µM

Compound: CCCCCC(CCCC)OC(=O)CCCc1nc2cc(N(CCCl)CCCl)ccc2n1C (stereo not drawn) [5-decanyl ester, 4-{5-[Bis-(chloroethyl)-amino]-1-methyl-1H-benzimidazol-2-yl}butyric acid 5-decyl ester]
- Plasma levels of Ester [1]: All < MQL

Reference: US9452988B2, “Bendamustine derivatives and methods of using same” (Ignyta, Inc., priority 2012, dated 2016)
